Laboratory results as given in US8030493B2, “Monovalent and divalent salts of N-(5-hydroxynicotinoil) -L-glutamic acid exhibiting psychotropic (antidepressant and anxiolytic), neuroprotective, geroprotective and cerebroprotective action” (Obschestvo S Ogranichennoy Otvetstvennostyu “Natsionalnaya …, priority 2006, dated 2011).

Legend:
Assay type in all cases: in vivo
[1] = tested on: mice exposed to hypobaric hypoxia; test: Acute hypobaric hypoxia in flow-exhaust chamber
Method: (§1) White nondescript male mice with body weight 22-28 g were used in the experiments. Each dose level was studied in 10 animals. Control animals received equivalent volume of distilled water. Nooglutyl was used as reference agent. Study compounds were administered intraperitoneally 40 minutes before the experiment.
(§2) Acute hypobaric hypoxia was simulated in flow-exhaust chamber. Pressure was measured with altimeter, and elevation speed with variometer. The animals were “elevated” at the speed 20 m/s to the stage at 11000 m. The exposure lasted 10 minutes. Then the animals were mover down to the baseline level for 5 minutes. Hypoxia with hypercapnia in hermovolume was created by placement of the animal into 200 ml hermetically sealed glass vessels. Life period of the animals under hypoxic conditions was recorded. Each group comprised 10 animals.

[2] = tested on: rats with amnesia; test: Antiamnestic activity: passive avoidance response (PAR) with amnesia by maximum electric shock; details: rats with electric shock amnesia, 24 hours after learning
Method: White nondescript male rats with body weight 250-280 g were used in the experiments. Each dose level was studied in 10 animals. Control animals received equivalent volume of distilled water. Nooglutyl was used as reference agent. Study compounds were administered intraperitoneally 40 minutes before the experiment. Experiment was carried out on the standard automated unit for passive avoidance response (Passive Avoidance) supplied by Lafayette Instrument Co., (USA) (Ader et al. Retention of a passive avoidance response as a function of the intensity and duration of electric shock. Psycho Sci. 1972, v. 26, p. 125-128; Voronina T. A. et al. “Textbook for Experimental (Preclinical Study) of novel pharmacological compounds”. Moscow, Medicina. 2005, p. 253-263 and 308-320). The unit was designed as small platform situated 1 m above the floor, which was illuminated with special lamp, and dark chamber with electrode floor connected with the platform. The rat was placed on illuminated platform in front of the entry to the dark chamber with its tail directed to the entry; the animal preferred dark chamber and quickly ran into it. In the dark chamber the animal received single pain stimulus with electric current (0.45 mA) and memorized that it was dangerous to enter dark chamber. Duration of the stimulus was determined from the running out of the animal from the dark chamber. To achieve amnesia maximum electric shock was used (50 Hz, 0.2 sec), which was made through corneal electrodes immediately after learning. Electric shock caused obliteration of the memory trace. Test for reproduction of passive avoidance response (PAR) (for retention of memory trace) was performed 24 hours after learning session and electric shock. The animal was placed on illuminated platform once again, and time of the presence on illuminated platform and dangerous dark chamber (no current was conducted to the floor during reproduction of PAR).
Control trained animals with reproduction of PAR without electric shock preferred to stay on illuminated platform. Obliteration of training with electric shock causes amnesia in the animals; as a result, the animals with short latent period enter dark chamber and stay there considerably longer than animals without amnesia (Table 2).

[3] = tested on: mice exposed to hypoxia in hermovolume; test: Hypoxia with hypercapnia in hermovolume
Method: as §1, §2

[4] = tested on: rats with hemorrhagic stroke; test: Hemorrhagic stroke: reproduction of passive avoidance response; details: Nimodipin at 01.mg/kg
Source text: White nondescript male rats with body weight 200-250 g, which lived in vivarium and had feed (standard palletized feed) and water ad libitum, with natural alternation of day and night, were used in the experiments. Hemorrhagic stroke (local cerebral hemorrhage) was simulated according to method by A. N. Makarenko et al. (Method of local hemorrhage simulation I various structures of the brain in experimental animals. Journal Visshei Nervnoy Deyatelnosti—Journal of Higher Nervous Activities, 2002, v. 52, No 6, p. 765-768). In nembutal-anesthetized rats (40 mg/kg, i.m.) destruction of the brain tissue in capsule interna area was made with the use of special device (mandarin-knife) followed by application of blood (0.02-0.03 ml) taken from under the rat's tongue to the damaged area (within 2-3 minutes). False-operated animals underwent scalping and craniotomy. The animals were divided into 5 groups: intact rats, false-operated rats, animals with hemorrhagic stroke received nooglutyl at 20 mg/kg, and animals with hemorrhagic stroke received Compound I at 20 mg/kg. Effects were recorded within 24 hours and 14 days after the surgery. Learning ability and memory of the rats was examined in the model of passive avoidance response (PAR, Passive Avoidance supplied by Lafayette Instrument Co., USA). To determine neurological deficit in the animals Stroke-index McGrow scale modified by I. V. Gannushkina (Functional architectonics of the brain, Moscow, Medicina, 1977, 224 p.) was used. The severity of the condition was determined by the sum of the points. The number of rats with mild symptoms up to 2.5 points of Stroke-index scale (apathy, weakness of the extremities, unilateral semiptosis, tremor, circus movements) and severe manifestations of neurological disorders (3 to 10 points)—paresis of the extremities, palsy of low extremities, lateral position. The animals received single dose of nooglutyl and Compound I at the same dose 20 mg/kg intraperitoneally within 3-3.5 hours after the surgery. Controlled animals were treated with saline. At onset of the experiment each group comprised 15-20 animals. Mortality of the rats was recorded throughout the observation period (14 days). Statistical analysis was made using parametrical and non-parametrical methods and Biostat software. Nimodipin administered at 01.mg/kg according to above scheme was considered as a standard.

[5] = tested on: mice SAM P 10; test: Antidepressant activity: forced swimming in mice SAM; details: 10 mg/kg, first 6 minutes of forced swimming
Method: Exp. Gerontolol. 1997, […]. et al. Age-related deterioration in conditional avoidance task in the SAM-P/10 mouse, an animal model of spontaneous brain atrophy. Brain Res., 1993, v. 608, p. 266-272). To assess depressive condition the method of forced swimming was used (Porsolt R. D. et al., Behavioral despair in rats: a new model sensitive to antidepressant treatment. Europ. J. […] The mice were placed into cylinder 10 cm in diameter and 25 cm height. Cylinder was filled with water by 1⁄3 (27° C.). After unsuccessful attempts to get out of the water the animals have typical immovable posture, which is regarded as manifestation of “despair”.

[6] = 30 mg/kg intraperitoneally 40 minutes before the experiment
[7] = 60 mg/kg intraperitoneally 40 minutes before the experiment
[8] = 120 mg/kg intraperitoneally 40 minutes before the experiment
[9] = PAR reproduction within 24 hours
[10] = PAR reproduction within 14 days

| SMILES | Life interval of mice (minutes) exposed to hypobaric hypoxia [1, 6] [min] | Life interval of mice (minutes) exposed to hypobaric hypoxia [1, 7] [min] | Time of presence of animals while PAR reproduction (seconds) in the dark chamber ([2]; 25 mg/kg intraperitoneally) [s] | Time of presence of animals while PAR reproduction (seconds) on the illuminated platform ([2]; 25 mg/kg intraperitoneally) [s] | Time of presence of animals while PAR reproduction (seconds) in the dark chamber ([2]; 50 mg/kg intraperitoneally) [s] | Time of presence of animals while PAR reproduction (seconds) on the illuminated platform ([2]; 50 mg/kg intraperitoneally) [s] | Life interval of mice (minutes) exposed to hypoxia in hermovolume [3, 6] [min] | Life interval of mice (minutes) exposed to hypoxia in hermovolume [3, 7] [min] | Life interval of mice (minutes) exposed to hypoxia in hermovolume [3, 8] [min] | Latent period of entry to dark chamber (c) [4, 9] [c] | Number of animals, which did not enter dark chamber (%) [4, 9] [%] | Latent period of entry to dark chamber (c) [4, 10] [c] | Number of animals, which did not enter dark chamber (%) [4, 10] | Period of active behaviour [5] [s] |
| --- | --- | --- | --- | --- | --- | --- | --- | --- | --- | --- | --- | --- | --- | --- |
| O=C([O-])CC[C@H](NC(=O)c1cncc(O)c1)C(=O)[O-].[Na+].[Na+] [Compound II, di-Na salt of N-(5-hydroxynicotinoyl)-L-glutamic acid] | 6.51 ± 0.82 | 5.95 ± 0.84 | 78.7 ± 12.3 | 41.3 ± 11.6 | 67.5 ± 15.1 | 52.5 ± 12.3 | 14.1 ± 0.71 | 16.3 ± 0.64 | 17.8 ± 0.69 |  |  |  |  |  |
| O=C([O-])CC[C@H](NC(=O)c1cncc(O)c1)C(=O)[O-].[K+].[K+] [Compound III, di-K salt of N-(5-hydroxynicotinoyl)-L-glutamic acid] | 3.91 ± 0.63 | 5.52 ± 0.54 | 70.7 ± 9.4 | 49.3 ± 10.1 | 68.6 ± 7.1 | 51.4 ± 9.8 | 14.2 ± 0.39 | 15.9 ± 0.45 | 17.4 ± 0.65 |  |  |  |  |  |
| COCCOC(=O)C1=C(C)NC(C)=C(C(=O)OC(C)C)C1c1cccc([N+](=O)[O-])c1 (centres unmarked) [Nimodipin] |  |  |  |  |  |  |  |  |  | 123.7 ± 19.6 | 58 | 77.5 ± 32.8 | 33$ % |  |
| CN(C)CCC=C1c2ccccc2CCc2ccccc21 [Amitryptilin, reference compound] |  |  |  |  |  |  |  |  |  |  |  |  |  | 225.10 ± 25.19 |
